Molecular target: Cyclin-dependent kinase 1/G2/mitotic-specific cyclin-B (Marthasterias glacialis, UniProt P15206+Q9DGD3)
Experiment: Kinase Inhibition Assay
Conditions: pH 7.2; 30 °C
Experimental: (§1) Kinase activities were assayed in buffers containing substrate, enzyme, and inhibitor at 30 °C in the presence of 15 uM ATP/ [gamma-32P] ATP. 32P incorporation was measured with a scintillation counter. The IC50 is the inhibitor concentration, which inhibits 50% of kinase activity that catalyzes the transfer of the terminal phosphate from 32P labeled ATP to the substrate.

Sequence of Cyclin-dependent kinase 1/G2/mitotic-specific cyclin-B (Q9DGD3 whole entry): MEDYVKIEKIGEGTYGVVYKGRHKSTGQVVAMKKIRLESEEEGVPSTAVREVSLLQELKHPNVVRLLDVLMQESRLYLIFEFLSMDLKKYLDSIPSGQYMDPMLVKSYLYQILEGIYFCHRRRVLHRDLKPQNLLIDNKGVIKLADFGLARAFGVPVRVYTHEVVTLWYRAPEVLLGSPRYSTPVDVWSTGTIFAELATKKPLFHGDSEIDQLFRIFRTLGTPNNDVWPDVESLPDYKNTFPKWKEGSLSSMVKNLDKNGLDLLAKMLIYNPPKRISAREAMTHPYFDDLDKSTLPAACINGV
Sequence of Cyclin-dependent kinase 1/G2/mitotic-specific cyclin-B (P15206 whole entry): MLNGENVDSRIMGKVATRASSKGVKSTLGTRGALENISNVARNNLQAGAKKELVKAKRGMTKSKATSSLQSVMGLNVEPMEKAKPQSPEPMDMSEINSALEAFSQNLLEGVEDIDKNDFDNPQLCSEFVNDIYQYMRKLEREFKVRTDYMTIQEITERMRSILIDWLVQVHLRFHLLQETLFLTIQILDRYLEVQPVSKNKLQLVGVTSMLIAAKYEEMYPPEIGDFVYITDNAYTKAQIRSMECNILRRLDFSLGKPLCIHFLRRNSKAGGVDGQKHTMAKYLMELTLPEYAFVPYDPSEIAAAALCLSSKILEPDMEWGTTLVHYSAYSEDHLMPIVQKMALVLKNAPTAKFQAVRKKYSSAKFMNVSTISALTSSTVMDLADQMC

`Oc1ccc2oc3ncc(Cl)c(-c4ccccc4)c3c2c1` [4-chloro-3-phenyl-8-oxa-6-azatricyclo[7.4.0.0^{2,7}]trideca-1(13),2(7),3,5,9,11-hexaen-12-ol] and `Cc1cnc2oc3ccc(O)cc3c2c1-c1ccccc1` [4-methyl-3-phenyl-8-oxa-6-azatricyclo[7.4.0.0^{2,7}]trideca-1(13),2(7),3,5,9,11-hexaen-12-ol] cannot be ordered by IC50: over 100 µM for the first, over 100 µM for the second.

For `CCOc1cnc2oc3ccc(O)cc3c2c1-c1ccccc1` [4-ethoxy-3-phenyl-8-oxa-6-azatricyclo[7.4.0.0^{2,7}]trideca-1(13),2(7),3,5,9,11-hexaen-12-ol], the IC50 was over 100 µM.

Molecular target: Glycogen synthase kinase-3 beta (Rattus norvegicus, UniProt P18266)
Sequence (P18266 whole entry): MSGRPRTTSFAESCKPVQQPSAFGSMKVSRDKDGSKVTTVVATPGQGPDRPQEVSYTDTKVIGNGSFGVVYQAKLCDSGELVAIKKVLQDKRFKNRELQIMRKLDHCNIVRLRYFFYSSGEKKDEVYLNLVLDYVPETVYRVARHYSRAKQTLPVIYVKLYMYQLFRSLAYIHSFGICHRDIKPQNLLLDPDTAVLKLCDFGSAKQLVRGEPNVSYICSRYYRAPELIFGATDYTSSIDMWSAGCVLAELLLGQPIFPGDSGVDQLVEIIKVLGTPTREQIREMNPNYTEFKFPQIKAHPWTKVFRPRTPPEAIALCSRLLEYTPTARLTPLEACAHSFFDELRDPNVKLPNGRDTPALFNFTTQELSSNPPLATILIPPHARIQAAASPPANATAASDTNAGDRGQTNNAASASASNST
Experiment: Kinase Inhibition Assay
Conditions: 30 °C
Experimental: as §1

First: CC(C)c1cnn2c(Nc3ccc(S(=O)(=O)N(C)C)cc3)cc(NC3CCCC(N)C3)nc12 (centres undefined) [4-({5-[(3-aminocyclohexyl)amino]-3-(propan-2-yl)pyrazolo[1,5-a]pyrimidin-7-yl}amino)-N,N-dimethylbenzene-1-sulfonamide]
Second: CC(C)c1cnn2c(Nc3ccc(S(=O)(=O)N(C)C)cc3)cc(N[C@H]3CC[C@H](N)CC3)nc12 [4-({5-[(4-aminocyclohexyl)amino]-3-(propan-2-yl)pyrazolo[1,5-a]pyrimidin-7-yl}amino)-N,N-dimethylbenzene-1-sulfonamide]
The IC50 of the first is higher: over 50 µM for the first, 40 µM for the second.

Going from `CN(C)S(=O)(=O)c1ccc(Nc2cc(N[C@H]3CC[C@H](N)CC3)nc3c(Br)cnn23)cc1Cl` [4-({5-[(4-aminocyclohexyl)amino]-3-bromopyrazolo[1,5-a]pyrimidin-7-yl}amino)-2-chloro-N,N-dimethylbenzene-1-sulfonamide] to `CN(C)S(=O)(=O)c1ccc(Nc2cc(N[C@H]3CC[C@H](N)CC3)nc3c(Br)cnn23)cc1` [4-({5-[(4-aminocyclohexyl)amino]-3-bromopyrazolo[1,5-a]pyrimidin-7-yl}amino)-N,N-dimethylbenzene-1-sulfonamide], the IC50 falls from 8.7 µM to 3.4 µM (2.6-fold). The second is the more potent here.

Going from `CN(C)S(=O)(=O)c1ccc(Nc2cc(N[C@H]3CC[C@H](N)CC3)nc3c(Cl)cnn23)cc1` [4-({5-[(4-aminocyclohexyl)amino]-3-chloropyrazolo[1,5-a]pyrimidin-7-yl}amino)-N,N-dimethylbenzene-1-sulfonamide] to `CN(C)S(=O)(=O)c1ccc(Nc2cc(N[C@H]3CC[C@H](N)CC3)nc3c(C#N)cnn23)cc1` [4-({5-[(4-aminocyclohexyl)amino]-3-cyanopyrazolo[1,5-a]pyrimidin-7-yl}amino)-N,N-dimethylbenzene-1-sulfonamide], the IC50 falls from 5.1 µM to 0.46 µM (11-fold). The second is the more potent here.

First: CN(C)S(=O)(=O)c1ccc(Nc2cc(N[C@H]3CC[C@H](N)CC3)nc3c(C4CCCC4)cnn23)cc1 [4-({5-[(4-aminocyclohexyl)amino]-3-cyclopentylpyrazolo[1,5-a]pyrimidin-7-yl}amino)-N,N-dimethylbenzene-1-sulfonamide]
Second: CCN[C@H]1CC[C@H](Nc2cc(Nc3ccc(S(=O)(=O)N(C)C)cc3)n3ncc(C(C)C)c3n2)CC1 [4-[(5-{[4-(ethylamino)cyclohexyl]amino}-3-(propan-2-yl)pyrazolo[1,5-a]pyrimidin-7-yl)amino]-N,N-dimethylbenzene-1-sulfonamide]
The IC50 of the first is lower: 22 µM for the first, over 50 µM for the second.

Compared with `CC(C)c1cnn2c(Nc3ccc(S(=O)(=O)N(C)C)cc3)cc(O[C@H]3CC[C@H](N)CC3)nc12` [4-({5-[(4-aminocyclohexyl)oxy]-3-(propan-2-yl)pyrazolo[1,5-a]pyrimidin-7-yl}amino)-N,N-dimethylbenzene-1-sulfonamide], `CC(C)COc1cc(Nc2ccc(S(=O)(=O)N(C)C)cc2)n2ncc(C(C)C)c2n1` [N,N-dimethyl-4-{[5-(2-methylpropoxy)-3-(propan-2-yl)pyrazolo[1,5-a]pyrimidin-7-yl]amino}benzene-1-sulfonamide] is 1.8-fold higher in IC50: 28 µM for the first, 50 µM for the second. The first is the more potent here.

Compared with `CCN(CC)[C@H]1CC[C@H](Nc2cc(Nc3ccc(S(=O)(=O)N(C)C)cc3)n3ncc(C(C)C)c3n2)CC1` [4-[(5-{[4-(diethylamino)cyclohexyl]amino}-3-(propan-2-yl)pyrazolo[1,5-a]pyrimidin-7-yl)amino]-N,N-dimethylbenzene-1-sulfonamide], `CC(C)c1cnn2c(Nc3ccc(S(C)(=O)=O)cc3)cc(Cl)nc12` [5-chloro-N-(4-methanesulfonylphenyl)-3-(propan-2-yl)pyrazolo[1,5-a]pyrimidin-7-amine] is lower in IC50: over 50 µM for the first, 11 µM for the second. The second is the more potent here.

Going from `Brc1cccc(-c2cc(NCc3ccncc3)n3nccc3n2)c1` [5-(3-bromophenyl)-N-(pyridin-4-ylmethyl)pyrazolo[1,5-a]pyrimidin-7-amine] to `CS(=O)(=O)c1ccc(Nc2cc(Cl)nc3ccnn23)cc1` [5-chloro-N-(4-methanesulfonylphenyl)pyrazolo[1,5-a]pyrimidin-7-amine], the IC50 rises from 0.96 µM to 3.1 µM (3.2-fold).

Compared with `N[C@H]1CC[C@H](Nc2cc(Nc3ccc(S(=O)(=O)c4ccccc4)cc3)n3ncc(Br)c3n2)CC1` [5-N-(4-aminocyclohexyl)-7-N-[4-(benzenesulfonyl)phenyl]-3-bromopyrazolo[1,5-a]pyrimidine-5,7-diamine], `CC(C)COc1cc(Nc2ccc(S(C)(=O)=O)cc2)n2ncc(C(C)C)c2n1` [N-(4-methanesulfonylphenyl)-5-(2-methylpropoxy)-3-(propan-2-yl)pyrazolo[1,5-a]pyrimidin-7-amine] is 2.3-fold higher in IC50: 5.3 µM for the first, 12 µM for the second.
